According to patent publication EP4748844A1, “AZETIDINE COMPOUND AND MEDICAL USE THEREOF” (SHANGHAI INSTITUTE OF MATERIA MEDICA, CHINESE ACADEMY OF …, priority 2023, dated 2025):

Assays:
Type in all cases: cell-based
[1] = test system: ISG gene expression induced by MSA-2 in human THP1-Blue-ISG cells; test: Inhibition of MSA-2-induced ISG gene expression in human THP1-Blue-ISG cells (Quanti-Blue, OD650); details: STING agonist MSA-2 10 µM, incubated for 24 hours
Procedure: (§1) 10 µL of compound diluted with PBS/physiological saline was added to each well of a 96 well cell culture plate. The STING agonist was MSA-2, which was added to the counted cell suspension at a final concentration of 10 µM. For the control group without compounds, 10 µL of PBS/physiological saline containing 2% DMSO was added. 3 replicate wells were set in each group. THP1-Blue-ISG cells were counted and adjusted to a cell concentration of 4× 10^5/mL, and 190 µL of cells containing STING agonist were added to each well for incubation. Therefore, the final volume of each test well was 200 µL, the content of DMSO was 0.1%, and the final concentration of the compound tested was 10/3.3/1.1/0.4/0.13/0.04/0.013/0.004 µM, incubated for 24 hours. In addition, 190 µL of cells without STING agonist and 10 µL of physiological saline containing 2% DMSO were added to the blank group. 3 replicate wells were set in each group.
After 24 hours, 20 µL of culture medium was taken from each well and transferred to a new 96 well plate. 180 µL of chromogenic solution Quanti-Blue was added. The plate was placed in a 37 °C incubator. After 2 hours, the OD650 values were measured.
Result analysis: Inhibition rate (%) = (Con(OD650)−Treated(OD650))/Con(OD650) × 100% [formula]
(§2) The IC50 calculation of inhibitors was implemented using the Graphpad Prism 8 software's calculation method log (inhibitor) vs. response - Variable slope (four parameters), with a constrain interval of 0-100.

[2] = test system: DMXAA induced ISG gene expression in mouse RAW-Lucia cells; test: Inhibition of DMXAA-induced ISG gene expression in mouse RAW-Lucia cells (QUANTI-Luc); details: STING agonist DMXAA 50 µM, incubated for 24 hours
Procedure: 10 µL of compound diluted with PBS/physiological saline was added to each well of a 96 well cell culture plate. The STING agonist was DMXAA, which was added to the counted cell suspension at a final concentration of 50 µM. For the control group without compounds, 10 µL of PBS/physiological saline containing 2% DMSO was added. 3 replicate wells were set in each group. RAW-Lucia cells were counted and adjusted to a cell concentration of 4×10^5/mL, and […] of cells were added to each well for incubation. Therefore, the final volume of each test well was 200 µL, the content of DMSO was 0.1%, and the final concentration of the compound tested was 10/3.3/1.1/0.4/0.13/0.04/0.013/0.004 µM. The final concentration of STING agonist DMXAA was 50 µM. The mixture was incubated for 24 hours. In addition, 200 µL of culture medium was added to the blank group. 3 replicate wells were set in each group.
(§3) After 24 hours, 20 µL of culture medium was taken from each well and transferred to a new 96 well plate with photopermeable bottom. 50 µL of the luciferase detection reagent QUANTI-Luc™ was added, and the […] was immediately measured (avoid light).
Result analysis: Inhibition rate (%) = (Con(Lum)−Treated(Lum))/Con(Lum) × 100% [formula]
as §2

[3] = test system: ISG gene expression induced by MSA-2 in human THP1-Dual cells; test: Inhibition of MSA-2-induced ISG gene expression in human THP1-Dual cells (QUANTI-Luc); details: STING agonist MSA-2 10 µM, incubated for 24 hours
Procedure: as §1, with “THP1-Dual” for “THP1-Blue-ISG”, “4×10^5/mL,” for “4× 10^5/mL,”
as §3, with “medium for THP1-Dual cells” for “medium”, “light). Result analysis:Inhibition rate (%) = (Con(Lum)−Treated(Lum))/Con(Lum) × 100% [formula]” for “light).”
as §2

IC50 [1] [µM] | IC50 [2] [µM] | IC50 [3] [µM] | SMILES
0.073 |  |  | O=C(Nc1c[nH]c2ccccc12)c1ccc2c(c1)SCC(=O)N2Cc1ccc2c(c1)OCO2 [Example I-66, 4-(benzo[d][1,3]dioxolan-5-ylmethyl)-N-(1H-indol-3-yl)-3-oxo-3,4-dihydro-2H-benzo[b][1,4]thiazin-7-carboxamide]
0.025 |  |  | O=C(Nc1c[nH]c2ccccc12)c1ccc2c(c1)N(Cc1cccs1)C(=O)CS2 [Example I-59, N-(1H-indol-3-yl)-3-oxo-4-(thien-2-ylmethyl)-3,4-dihydro-2H-benzo[b][1,4]thiazin-6-carboxamide]
0.057 |  |  | O=C(Nc1c[nH]c2ccccc12)c1ccc2c(c1)SCC(=O)N2Cc1ccc2occc2c1 [Example I-65, 4-(benzofuran-5-ylmethyl)-N-(1H-indol-3-yl)-3-oxo-3,4-dihydro-2H-benzo[b][1,4]thiazin-7-carboxamide]
 | 0.0159 | 0.272 | O=C(Nc1c[nH]c2ccc(F)cc12)c1cc2c(s1)SCC(=O)N2Cc1ccoc1 [Example I-122, N-(5-fluoro-1H-indol-3-yl)-1-(furan-3-ylmethyl)-2-oxo-2,3-dihydro-1H-thieno[2,3-b][1,4]thiazin-6-carboxamide]
 | 0.0279 | 0.0394 | O=C(Nc1c[nH]c2ccccc12)c1cc2c(s1)SCC(=O)N2Cc1ccc2occc2c1 [Example I-113, 1-(benzofuran-5-ylmethyl)-N-(1H-indol-3-yl)-2-oxo-2,3-dihydro-1H-thieno[2,3-b][1,4]thiazin-6-carboxamide]
0.139 |  |  | O=C(Nc1c[nH]c2ccccc12)c1ccc2c(c1)SCC(=O)N2Cc1ccoc1 [Example I-64, 4-(furan-3-ylmethyl)-N-(1H-indol-3-yl)-3-oxo-3,4-dihydro-2H-benzo[b][1,4]thiazin-7-carboxamide]
0.042 |  |  | O=C(Nc1c[nH]c2ccccc12)c1ccc2c(c1)N(Cc1ccco1)C(=O)CS2 [Example I-60, 4-(furan-2-ylmethyl)-N-(1H-indol-3-yl)-3-oxo-3,4-dihydro-2H-benzo[b][1,4]thiazin-6-carboxamide]
 | 0.0452 | 0.232 | O=C(Nc1c[nH]c2ccccc12)c1cc2c(s1)SCC(=O)N2Cc1ccco1 [Example I-118, 1-(furan-2-ylmethyl)-N-(1H-indol-3-yl)-2-oxo-2,3-dihydro-1H-thieno[2,3-b] [1,4]thiazin-6-carboxamide]
 | 0.0767 | 0.085 | O=C(Nc1c[nH]c2ccccc12)c1cc2c(s1)SCC(=O)N2Cc1ccoc1 [Example I-117, 1-(furan-3-ylmethyl)-N-(1H-indol-3-yl)-2-oxo-2,3-dihydro-1H-thieno[2,3-b][1,4]thiazin-6-carboxamide]

Second part, the compound before the results:

SMILES | IC50 [1] [µM] | IC50 [2] [µM] | IC50 [3] [µM]
CC1(C)C(=O)N(Cc2ccccc2)c2cc(C(=O)Nc3c[nH]c4ccccc34)ccc21 [Example I-76, 1-benzyl-N-(1H-indol-3-yl)-3,3-dimethyl-2-oxoindolin-6-carboxamide] | 0.235 | 0.00224 | 
CC1(C)C(=O)N(Cc2ccco2)c2cc(C(=O)Nc3c[nH]c4ccccc34)ccc21 [Example I-80, 1-(furan-2-ylmethyl)-N-(1H-indol-3-yl)-3,3-dimethyl-2-oxoindolin-6-carboxamide] | 0.626 | 0.024 | 
CC1(C)C(=O)N(Cc2ccccc2)c2cc(NC(=O)c3c[nH]c4ccccc34)ccc21 [C, reference compound] | 1.54 | 0.188 | 
CC1(C)C(=O)N(CCc2ccccc2)c2cc(C(=O)Nc3c[nH]c4ccccc34)ccc21 [Example I-81, N-(1H-indol-3-yl)-3,3-dimethyl-2-oxo-1-phenethylindolin-6-carboxamide] | 0.237 | 0.00042 | 
O=C(Nc1ccc2c(c1)N(CC1CN(c3ccc4c(c3)OCO4)C1)C(=O)CS2)Nc1c[nH]c2ccccc12 [Example I-13, 1-(4-((1-(benzo[d][1,3]dioxolan-5-yl)azetidin-3-yl)methyl)-3-oxo-3,4-dihydro-2H-benzo[b][1,4]thiazin-6-yl)-3-(1H-indol-3-yl)urea] | 0.391 |  | 
O=C(Nc1c[nH]c2ccccc12)c1ccc2c(c1)N(CC1CN(c3cc(F)cc(C(F)(F)F)c3)C1)C(=O)CS2 [Example I-9, 4-((1-(3-fluoro-5-trifluoromethylphenyl)azetidin-3-yl)methyl)-N-(1H-indol-3-yl)-3-oxo-3,4-dihydro-2H-benzo[b][1,4]thiazin-6-carboxamide] | 0.249 |  | 
CC1(C)C(=O)N(Cc2csc3ccccc23)c2cc(C(=O)Nc3c[nH]c4ccccc34)ccc21 [Example I-109, 1-(benzo[b]thien-3-ylmethyl)-N-(1H-indol-3-yl)-3,3-dimethyl-2-indolin-6-carboxamide] |  | 0.0118 | 0.0321
CC1(C)C(=O)N(Cc2ccsc2)c2cc(C(=O)Nc3c[nH]c4ccccc34)sc21 [Example I-85, N-(1H-indol-3-yl)-6,6-dimethyl-5-oxo-4-(thien-3-ylmethyl)-5,6-dihydro-4H-thieno[3,2-b]pyrrol-2-carboxamide] |  | 0.0194 | 0.0165
O=C(Nc1c[nH]c2ccccc12)c1cc2c(s1)SCC(=O)N2Cc1ccsc1 [Example I-112, N-(1H-indol-3-yl)-2-oxo-1-(thien-3-ylmethyl)-2,3-dihydro-1H-thieno[2,3-b][1,4]thiazin-6-carboxamide] |  | 0.0419 | 0.0465
O=C(Nc1c[nH]c2ccccc12)c1cc2c(s1)SCC(=O)N2Cc1cc(F)cc(C(F)(F)F)c1 [Example I-115, 1-(3-fluoro-5-(trifluoromethyl)benzyl)-N-(1H-indol-3-yl)-2-oxo-2,3-dihydro-1H-thieno[2,3-b][1,4]thiazin-6-carboxamide] |  | 0.00751 | 0.0122
CC1(C)C(=O)N(CC2CN(c3ccccc3)C2)c2cc(NC(=O)Nc3c[nH]c4ccccc34)ccc21 [Example I-12, 1-(3,3-dimethyl-2-oxo-1-((1-phenylazetidin-3-yl)methyl)indolin-6-yl)-3-(1H-indol-3-yl)urea] | 0.375 |  | 
CC(c1ccccc1)N1C(=O)C(C)(C)c2ccc(C(=O)Nc3c[nH]c4ccccc34)cc21 (centres unmarked) [Example I-100, N-(1H-indol-3-yl)-3,3-dimethyl-2-oxo-1-(1-phenethyl)indolin-6-carboxamide] |  | 0.0151 | 0.0596
O=C(Nc1c[nH]c2ccccc12)c1cc2c(s1)SCC(=O)N2Cc1cccc2ccoc12 [Example I-120, 1-(benzofuran-7-ylmethyl)-N-(1H-indol-3-yl)-2-oxo-2,3-dihydro-1H-thieno[2,3-b][1,4]thiazin-6-carboxamide] |  | 0.0087 | 0.0965
O=C(Nc1cc2c(s1)SCC(=O)N2Cc1ccccc1)Nc1c[nH]c2ccccc12 [Example I-7, 1-(1-benzyl-2-oxo-2,3-dihydro-1H-thieno[2,3-b][1,4]thiazin-6-yl)-3-(1H-indol-3-yl)urea] | 0.39 |  | 
CCc1ccc(NC(=O)Nc2c[nH]c3ccccc23)cc1 [Example H151, H-151, reference compound] |  | 0.271 | 0.635
CC1(C)C(=O)N(Cc2cccc3ccoc23)c2cc(C(=O)Nc3c[nH]c4ccc(Cl)cc34)ccc21 [Example I-128, 1-(benzofuran-7-ylmethyl)-N-(5-chloro-1H-indol-3-yl)-3,3-dimethyl-2-oxoindolin-6-carboxamide] |  | 0.0394 | 0.0394
